Source: ChEMBL document CHEMBL1127066, “Discovery and structure-activity relationship of a series of 1-carba-1-dethiacephems exhibiting activity against methicillin-resistant Staphylococcus aureus” (J Med Chem, 1993)

system: Staphylococcus aureus; assay: In vitro antimicrobial activity against Staphylococcus aureus X400 strain; format: functional

SMILES | MIC
Cc1nc(SC2=C(C(=O)[O-])N3C(=O)[C@@H](NC(=O)/C(=N/OCCF)c4csc(N)n4)[C@H]3CC2)sc1C.[Na+] | 32 µg/mL
CCOc1ccc2nc(SC3=C(C(=O)[O-])N4C(=O)[C@@H](NC(=O)/C(=N/OCCF)c5csc(N)n5)[C@H]4CC3)sc2c1.[Na+] | 8 µg/mL

system: Klebsiella; assay: In vitro antimicrobial activity against Klebsiella X26 strain; format: functional

SMILES | MIC
Cc1nc(SC2=C(C(=O)[O-])N3C(=O)[C@@H](NC(=O)/C(=N/OCCF)c4csc(N)n4)[C@H]3CC2)sc1C.[Na+] | 0.06 µg/mL
CCOc1ccc2nc(SC3=C(C(=O)[O-])N4C(=O)[C@@H](NC(=O)/C(=N/OCCF)c5csc(N)n5)[C@H]4CC3)sc2c1.[Na+] | 0.06 µg/mL

system: Pseudomonas aeruginosa; assay: Antimicrobial activity against Pseudomonas PS18 strain; format: functional

SMILES | MIC
Cc1nc(SC2=C(C(=O)[O-])N3C(=O)[C@@H](NC(=O)/C(=N/OCCF)c4csc(N)n4)[C@H]3CC2)sc1C.[Na+] | 64 µg/mL
CCOc1ccc2nc(SC3=C(C(=O)[O-])N4C(=O)[C@@H](NC(=O)/C(=N/OCCF)c5csc(N)n5)[C@H]4CC3)sc2c1.[Na+] | 128 µg/mL

system: Streptococcus pneumoniae; assay: In vitro antimicrobial activity against Streptococcus pneumoniae PARK strain; format: functional

SMILES | MIC
Cc1nc(SC2=C(C(=O)[O-])N3C(=O)[C@@H](NC(=O)/C(=N/OCCF)c4csc(N)n4)[C@H]3CC2)sc1C.[Na+] | < 8 ng/mL
CCOc1ccc2nc(SC3=C(C(=O)[O-])N4C(=O)[C@@H](NC(=O)/C(=N/OCCF)c5csc(N)n5)[C@H]4CC3)sc2c1.[Na+] | < 8 ng/mL

system: Pseudomonas aeruginosa; assay: In vitro antimicrobial activity against Pseudomonas X239 strain; format: functional

SMILES | MIC
Cc1nc(SC2=C(C(=O)[O-])N3C(=O)[C@@H](NC(=O)/C(=N/OCCF)c4csc(N)n4)[C@H]3CC2)sc1C.[Na+] | 8 µg/mL
CCOc1ccc2nc(SC3=C(C(=O)[O-])N4C(=O)[C@@H](NC(=O)/C(=N/OCCF)c5csc(N)n5)[C@H]4CC3)sc2c1.[Na+] | > 128 µg/mL

system: Staphylococcus aureus; assay: In vitro antimicrobial activity against Staphylococcus aureus X1.1 strain; format: functional

SMILES | MIC
Cc1nc(SC2=C(C(=O)[O-])N3C(=O)[C@@H](NC(=O)/C(=N/OCCF)c4csc(N)n4)[C@H]3CC2)sc1C.[Na+] | 0.5 µg/mL
CCOc1ccc2nc(SC3=C(C(=O)[O-])N4C(=O)[C@@H](NC(=O)/C(=N/OCCF)c5csc(N)n5)[C@H]4CC3)sc2c1.[Na+] | 0.25 µg/mL

system: Enterobacter cloacae; assay: In vitro evaluation of antimicrobial activity against Enterobacter cloacae EB5 strain; format: functional

SMILES | MIC
Cc1nc(SC2=C(C(=O)[O-])N3C(=O)[C@@H](NC(=O)/C(=N/OCCF)c4csc(N)n4)[C@H]3CC2)sc1C.[Na+] | 4 µg/mL
CCOc1ccc2nc(SC3=C(C(=O)[O-])N4C(=O)[C@@H](NC(=O)/C(=N/OCCF)c5csc(N)n5)[C@H]4CC3)sc2c1.[Na+] | 4 µg/mL

system: Haemophilus influenzae; assay: In vitro antimicrobial activity against Haemophilus influenzae C.L. strain; format: functional

SMILES | MIC
Cc1nc(SC2=C(C(=O)[O-])N3C(=O)[C@@H](NC(=O)/C(=N/OCCF)c4csc(N)n4)[C@H]3CC2)sc1C.[Na+] | 0.015 µg/mL
CCOc1ccc2nc(SC3=C(C(=O)[O-])N4C(=O)[C@@H](NC(=O)/C(=N/OCCF)c5csc(N)n5)[C@H]4CC3)sc2c1.[Na+] | 0.125 µg/mL

system: Staphylococcus epidermidis; assay: In vitro antimicrobial activity against Staphylococcus epidermidis 270 strain; format: functional

SMILES | MIC
Cc1nc(SC2=C(C(=O)[O-])N3C(=O)[C@@H](NC(=O)/C(=N/OCCF)c4csc(N)n4)[C@H]3CC2)sc1C.[Na+] | 2 µg/mL
CCOc1ccc2nc(SC3=C(C(=O)[O-])N4C(=O)[C@@H](NC(=O)/C(=N/OCCF)c5csc(N)n5)[C@H]4CC3)sc2c1.[Na+] | 0.5 µg/mL

system: Escherichia coli; assay: In vitro evaluation of antimicrobial activity against Escherichia coli EC14 strain; format: functional

SMILES | MIC
Cc1nc(SC2=C(C(=O)[O-])N3C(=O)[C@@H](NC(=O)/C(=N/OCCF)c4csc(N)n4)[C@H]3CC2)sc1C.[Na+] | 0.5 µg/mL
CCOc1ccc2nc(SC3=C(C(=O)[O-])N4C(=O)[C@@H](NC(=O)/C(=N/OCCF)c5csc(N)n5)[C@H]4CC3)sc2c1.[Na+] | 1 µg/mL

system: Staphylococcus aureus; assay: In vitro antimicrobial activity against Staphylococcus aureus S13E strain; format: functional

SMILES | MIC
Cc1nc(SC2=C(C(=O)[O-])N3C(=O)[C@@H](NC(=O)/C(=N/OCCF)c4csc(N)n4)[C@H]3CC2)sc1C.[Na+] | 4 µg/mL
CCOc1ccc2nc(SC3=C(C(=O)[O-])N4C(=O)[C@@H](NC(=O)/C(=N/OCCF)c5csc(N)n5)[C@H]4CC3)sc2c1.[Na+] | 8 µg/mL

system: Staphylococcus epidermidis; assay: In vitro antimicrobial activity against Staphylococcus epidermidis 222 strain; format: functional

SMILES | MIC
Cc1nc(SC2=C(C(=O)[O-])N3C(=O)[C@@H](NC(=O)/C(=N/OCCF)c4csc(N)n4)[C@H]3CC2)sc1C.[Na+] | 1 µg/mL
CCOc1ccc2nc(SC3=C(C(=O)[O-])N4C(=O)[C@@H](NC(=O)/C(=N/OCCF)c5csc(N)n5)[C@H]4CC3)sc2c1.[Na+] | 1 µg/mL
